Read-outs that look alike come from different tables or passages of the source. Marks after values point to notes of the source that are not given here.
Assays:
Assay type in all cases: cell-based, Klebsiella pneumoniae
K. pneumoniae AcrB^V448E = test: MIC of antibiotics with and without EPI (REMA), AcrB V448E mutant; conditions: for Minimum Inhibitory Concentration: K. pneumoniae AcrB^V448E; for MIC: Klebsiella pneumoniae, read-out: Minimum Inhibitory Concentration
Protocol: (§1) MIC experiments were carried out according to the CLSI guidelines (CLSI [2023]). Overnight cultures were diluted to an OD600 = 0.001 in CAMHB followed by addition of efflux pump inhibitors (EPIs) at a final concentration of 100 µM. […] Plates were incubated at 37 °C for up to 20 h. Bacterial viability was evaluated using the resazurin microtitre assay (REMA) and measured by fluorescence using a Tecan Spaert multimode plate reader (Ex: 530 nm Em: 590 nm). MICs were defined as the concentration that prevented 90% of resazurin turnover compared to the non-treated bacteria.
(§2) Mutations in acrB or ramR identified in the BDM88855.HCl (1’) resistant mutant (a.k.a., KPJC11) were introduced individually into K. pneumoniae ATCC 43816 chromosome by allelic exchange (Cianfanelli et al, [2020]). Briefly, 1-kb PCR products centred around each point mutation were generated by amplifying acrB with primers RH1251 ([…][…]) and RH1252 ([…][…]) or ramR with primers RH1249 ([…][…]) and RH1250 ([…][…]) from KPJC11 genomic DNA. PCR fragments were cloned into pFOK (Cianfanelli et al, [2020]) using NEB-building kit ([New England Biolabs]) to generate pEP1533 and pEP1534. Correct plasmids were confirmed by sequencing and introduced into K. pneumoniae ATCC43816 WT via conjugation with the MFDpir+ E. coli donor strain. Exconjugants were selected on kanamycin (50 mg/L) plates at 37 °C and plasmid chromosomal integration was checked by PCR. […] The next day, cultures were diluted and plated onto LB agar. Isolated colonies were then patched onto LB plates with or without kanamycin (50 mg/L) and Km^S candidates were evaluated for correct allelic exchange via acrB or ramR sequencing and then WGS to confirm no additional mutations were introduced.

[1] = test system: K. pneumoniae ATCC 43816 (WT); test: MIC of antibiotics with and without EPI (REMA), WT strain; conditions: for MIC: Klebsiella pneumoniae
Protocol: Overnight cultures were diluted to an OD600 = 0.001 in CAMHB followed by addition of efflux pump inhibitors (EPIs) at a final concentration of 100 µM. […] Plates were incubated at 37 °C for up to 20 h. […] MICs were defined as the concentration that prevented 90% of resazurin turnover compared to the non-treated bacteria.

[2] = test system: K. pneumoniae RamR^mut (K124*stop); test: MIC of antibiotics with and without EPI (REMA), RamR mutant; conditions: for Minimum Inhibitory Concentration: K. pneumoniae RamR^mut; for MIC: Klebsiella pneumoniae, read-out: Minimum Inhibitory Concentration
Protocol: as §1, §2

[3] = test system: K. pneumoniae AcrB^V448E RamR^mut; test: MIC of antibiotics with and without EPI (REMA), double mutant; conditions: for Minimum Inhibitory Concentration: K. pneumoniae AcrB^V448E RamR^mut; for MIC: Klebsiella pneumoniae, read-out: Minimum Inhibitory Concentration
Protocol: as §1

[4] = K. pneumoniae WT, + 100 µM PAβN
[5] = ATCC43816, K. pneumoniae WT, No EPI, read-out: Minimum Inhibitory Concentration

Row | Structure (SMILES) | Minimum Inhibitory Concentration (K. pneumoniae AcrB^V448E; + 100 µM 1') | Minimum Inhibitory Concentration (K. pneumoniae AcrB^V448E; + 100 µM 5) | Minimum Inhibitory Concentration (K. pneumoniae AcrB^V448E; + 100 µM PAβN) | MIC (K. pneumoniae AcrB^V448E) [µg/mL] | Minimum Inhibitory Concentration ([1]; K. pneumoniae WT, + 100 µM 1') | Minimum Inhibitory Concentration ([1]; K. pneumoniae WT, + 100 µM 5) | Minimum Inhibitory Concentration [1, 4] | MIC [1, 5] [µg/mL] | Minimum Inhibitory Concentration ([2]; + 100 µM 1') | Minimum Inhibitory Concentration ([2]; + 100 µM 5) | Minimum Inhibitory Concentration ([2]; + 100 µM PAβN) | MIC [2] [µg/mL] | Minimum Inhibitory Concentration ([3]; + 100 µM 1') [mg/L] | Minimum Inhibitory Concentration ([3]; + 100 µM 5) [mg/L] | Minimum Inhibitory Concentration ([3]; + 100 µM PAβN) | Minimum Inhibitory Concentration ([3]; No EPI) [mg/L] | MIC [3] [µg/mL] | Minimum Inhibitory Concentration (K. pneumoniae AcrB^V448E; No EPI) [mg/L] | Minimum Inhibitory Concentration ([2]; No EPI) [mg/L] | MIC ([1]; ATCC43816, read-out: Minimum Inhibitory Concentration) [µg/mL]
1 | O=C(N[C@H](CO)[C@H](O)c1ccc([N+](=O)[O-])cc1)C(Cl)Cl [Chloramphenicol] | 2.0^# mg/L | 4.7 mg/L | 2.0^# mg/L | 6.7 | 1.0^# mg/L | 1.0^# mg/L | 1.7^# mg/L | 4 | 2.7^# mg/L | 4.7^# mg/L | 2.7^# mg/L | 53 | 128 | 128 | 5.3^# mg/L | 128 |  |  |  | 
2 | CCN1CCN(C(=O)N[C@@H](C(=O)N[C@@H]2C(=O)N3[C@@H]2SC(C)(C)[C@@H]3C(=O)O)c2ccccc2)C(=O)C1=O [Piperacillin] | 5.3^# mg/L | 5.3^# mg/L | 13 mg/L | 16 | 5.3 mg/L | 4.0^# mg/L | 8.0 mg/L | 8 | 16 mg/L | 6.7^# mg/L | 21 mg/L | 27 | 37 | 21 | 43 mg/L |  | 21 |  |  | 
3 | CO/N=C(\C(=O)N[C@@H]1C(=O)N2C(C(=O)[O-])=C(C[N+]3(C)CCCC3)CS[C@H]12)c1csc(N)n1 [Cefepime] | 0.05 mg/L | 0.04 mg/L | 0.64 mg/L | 0.06 | 0.05 mg/L | 0.05 mg/L | 0.21 mg/L | 0.09 | 0.64 mg/L | 0.11^# mg/L | 0.64 mg/L | 0.53 | 0.85 | 0.96 | 0.85 mg/L |  | 0.75 |  |  | 
4 | Cc1onc(-c2ccccc2)c1C(=O)N[C@@H]1C(=O)N2[C@@H]1SC(C)(C)[C@@H]2C(=O)O [Oxacillin] |  |  |  |  | 32^# mg/L | 43^# mg/L |  |  |  |  |  |  |  |  |  |  |  |  |  | 
5 | CC(C)(O/N=C(\C(=O)N[C@@H]1C(=O)N2C(C(=O)[O-])=C(C[n+]3ccccc3)CS[C@H]12)c1csc(N)n1)C(=O)O [Ceftazidime] | 0.37^# mg/L | 0.32^# mg/L | 0.53 mg/L | 0.85 | 0.32 mg/L | 0.53 mg/L | 0.32 mg/L | 0.43 | 1.1 mg/L | 0.64^# mg/L | 0.64^# mg/L | 1.3 | 1.28 | 1.28 | 1.28 mg/L | 1.28 |  |  |  | 
6 | CC(=O)NC[C@H]1CN(c2ccc(N3CCOCC3)c(F)c2)C(=O)O1 [Linezolid] | 85 mg/L | 128 mg/L | 64^# mg/L |  | 13^# mg/L | 27^# mg/L | 64^# mg/L | 128 | 128 mg/L | 107 mg/L | 128 mg/L |  | 128 | 128 | 128 mg/L | 128 |  | 128 | 128 | 
7 | CC(=O)O[C@H]1C[C@@]2(C)[C@@H](C[C@@H](O)[C@H]3[C@@]4(C)CC[C@@H](O)[C@@H](C)[C@@H]4CC[C@@]32C)/C1=C(\CCC=C(C)C)C(=O)O [Fusidic acid] | 128 mg/L | 128 mg/L | 32^# mg/L |  | 85 mg/L | 128 mg/L | 21^# mg/L | 128 | 128 mg/L | 128 mg/L | 85 mg/L |  | 128 | 128 | 107 mg/L | 128 |  | 128 | 128 | 
8 | CN(C)[C@@H]1C(O)=C(C(N)=O)C(=O)[C@@]2(O)C(O)=C3C(=O)c4c(O)cccc4[C@@](C)(O)[C@H]3C[C@@H]12 [Tetracycline] | 0.8^# mg/L | 0.7^# mg/L | 2.7 mg/L | 1.9 | 0.4^# mg/L | 0.4^# mg/L | 1.3 mg/L |  | 1.1^# mg/L | 0.7^# mg/L | 4.3^# mg/L | 8.5 | 11 | 8.5 | 4.3^# mg/L |  | 11 |  |  | 0.8
9 | C[C@H]1[C@H](NC(=O)/C(=N\OC(C)(C)C(=O)O)c2csc(N)n2)C(=O)N1S(=O)(=O)O [Aztreonam] | 0.16 mg/L | 0.21 mg/L | 0.32 mg/L | 0.13 | 0.11 mg/L | 0.11 mg/L | 0.16 mg/L | 0.07 | 0.32 mg/L | 0.27 mg/L | 0.53 mg/L | 0.43 | 0.53 | 0.75 | 0.53 mg/L |  | 0.53 |  |  | 
10 | CO[C@@H]1[C@@H](OC(N)=O)[C@@H](O)[C@H](Oc2ccc3c(O)c(NC(=O)c4ccc(O)c(CC=C(C)C)c4)c(=O)oc3c2C)OC1(C)C [Novobiocin] | 64^# mg/L | 32^# mg/L | 16^# mg/L |  | 13^# mg/L | 13^# mg/L | 11^# mg/L | 64 | 128 mg/L | 85 mg/L | 43^# mg/L |  | 128 | 128 | 8^# mg/L | 128 |  | 128 | 128 | 

Reference: paper PMC10897476, “Pyridylpiperazine efflux pump inhibitor boosts in vivo antibiotic efficacy against K. pneumoniae” (EMBO Molecular Medicine, 2023)
